The text below walks through data of ChEMBL document CHEMBL4334438, “Discovery of novel glycogen synthase kinase-3α inhibitors: Structure-based virtual screening, preliminary SAR and biological evaluation for treatment of acute myeloid leukemia” (Eur J Med Chem, 2019).

For experiment [1], the system named is Glycogen synthase kinase-3 alpha (Homo sapiens), P49840 [UNDEFINED MUTATION]. As to the kind of experiment: Inhibition of human GSK-3alpha S449A mutant (2 to end residues) at 10 uM using phospho GS2 peptide as substrate after 40 mins in presence of [gamma-33ATP] by scintillation counting method relative to control.
In experiment [2] the test system is Tyrosine-protein kinase ABL1 (Homo sapiens), P00519 [T315I]. As to the kind of experiment: Inhibition of human ABL1 T315I mutant (27 to end residues) assessed as residual activity at 1 uM using EAIYAAPFAKKK as substrate incubated for 40 mins in presence of [gamma-33ATP] by scintillation counting based radiometry assay relative to control.
In experiment [3] the target is Calcium/calmodulin-dependent protein kinase type 1B (Homo sapiens) (UniProt Q6P2M8). The experiment is described as follows: Inhibition of recombinant full length human CaMKIbeta assessed as residual activity at 1 uM using KKLRRTLSFAEP as substrate incubated for 40 mins in presence of [gamma-33ATP] by scintillation counting based radiometry assay relative to control.
Chain of Calcium/calmodulin-dependent protein kinase type 1B (Homo sapiens) (Q6P2M8 whole entry): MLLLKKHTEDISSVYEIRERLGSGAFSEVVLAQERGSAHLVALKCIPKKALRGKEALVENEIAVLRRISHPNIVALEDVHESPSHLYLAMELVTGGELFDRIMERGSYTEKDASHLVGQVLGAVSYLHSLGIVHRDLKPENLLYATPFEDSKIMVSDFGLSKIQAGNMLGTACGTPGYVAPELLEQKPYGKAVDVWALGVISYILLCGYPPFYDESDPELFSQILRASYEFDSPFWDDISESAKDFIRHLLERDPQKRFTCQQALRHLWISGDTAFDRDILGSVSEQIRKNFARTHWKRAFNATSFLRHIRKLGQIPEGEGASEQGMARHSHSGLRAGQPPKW

Experiment [4] has as its system Calcium/calmodulin-dependent protein kinase kinase 2 (Homo sapiens), Q96RR4 [T85S]. As to the kind of experiment: Inhibition of recombinant full length human CaMKK2 T85S mutant assessed as residual activity at 1 uM […] incubated for 40 mins in presence of [gamma-33ATP] by scintillation counting based radiometry assay relative to control.

The target in experiment [5] is Cyclin-dependent kinase-like 2 (Homo sapiens) (UniProt Q92772). As to the kind of experiment: Inhibition of recombinant full length human CDKL2 assessed as residual activity at 1 uM in presence of [gamma-33ATP] by scintillation counting based radiometry assay relative to control.
Experiment [6] deals with Cyclin-dependent kinase-like 3 (Homo sapiens) (UniProt Q8IVW4). The experiment is described as follows: Inhibition of recombinant full length human CDKL3 assessed as residual activity at 1 uM using RRRFRPASPLRGPPK as substrate incubated for 120 mins in presence of [gamma-33ATP] by scintillation counting based radiometry assay relative to control.
Chain of Cyclin-dependent kinase-like 3 (Homo sapiens) (Q8IVW4 whole entry, looked up, canonical isoform): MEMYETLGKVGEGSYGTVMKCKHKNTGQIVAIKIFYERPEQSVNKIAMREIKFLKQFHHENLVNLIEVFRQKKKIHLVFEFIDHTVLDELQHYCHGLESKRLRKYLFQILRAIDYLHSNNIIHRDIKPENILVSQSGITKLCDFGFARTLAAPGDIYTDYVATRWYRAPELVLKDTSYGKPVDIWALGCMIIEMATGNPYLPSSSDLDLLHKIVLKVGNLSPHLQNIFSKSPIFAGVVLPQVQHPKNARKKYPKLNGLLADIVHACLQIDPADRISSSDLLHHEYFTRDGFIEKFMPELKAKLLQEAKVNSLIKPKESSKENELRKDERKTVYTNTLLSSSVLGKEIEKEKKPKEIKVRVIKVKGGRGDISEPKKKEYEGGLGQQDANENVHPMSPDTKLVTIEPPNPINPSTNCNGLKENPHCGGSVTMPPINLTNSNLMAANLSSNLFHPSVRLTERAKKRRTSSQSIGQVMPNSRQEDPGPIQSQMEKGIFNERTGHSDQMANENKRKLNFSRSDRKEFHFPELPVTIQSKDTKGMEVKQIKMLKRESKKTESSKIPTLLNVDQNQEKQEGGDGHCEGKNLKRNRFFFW
Experiment [7] addresses Casein kinase I isoform gamma-2 (Homo sapiens) (UniProt P78368). As to the kind of experiment: Inhibition of recombinant human CK1gamma2 (18 to end residues) assessed as residual activity at 1 uM using KRRRALS(p)VASLPGL as substrate incubated for 40 mins in presence of [gamma-33ATP] by scintillation counting based radiometry assay relative to control.
In experiment [8] the target is Dual specificity protein kinase CLK1 (Homo sapiens) (UniProt P49759). As to the kind of experiment: Inhibition of recombinant human CLK1 (130 to end residues) assessed as residual activity at 1 uM using ERMRPRKRQGSVR as substrate incubated 40 mins in presence of [gamma-33ATP] by scintillation counting based radiometry assay relative to control.
The target in experiment [9] is Tyrosine-protein kinase Fes/Fps (Homo sapiens) (UniProt P07332). The experiment is described as follows: Inhibition of recombinant human FES (2 to end residues) assessed as residual activity at 1 uM using poly(Glu, Tyr) 4:1 as substrate at 40 mins in presence of [gamma-33ATP] by scintillation counting based radiometry assay relative to control.
In experiment [10] the test system is eIF-2-alpha kinase GCN2 (Homo sapiens), Q9P2K8 [E556G]. As to the kind of experiment: Inhibition of recombinant full length human GCN2 E556G mutant assessed as residual activity at 1 uM using RSRSRSRSRSRSRSR as substrate at 40 mins in presence of [gamma-33ATP] by scintillation counting based radiometry assay relative to control.
Experiment [11] concerns the target Tyrosine-protein kinase HCK (Homo sapiens) (UniProt P08631). As to the kind of experiment: Inhibition of human HCK activated (230 to 497 residues) assessed as residual activity at 1 uM using GGMEDIYFEFMGGKKK as substrate after 40 mins by [gamma-33ATP] radiometric assay relative to control.
Experiment [12] deals with Vascular endothelial growth factor receptor 2 (Homo sapiens) (UniProt P35968). The experiment is described as follows: Inhibition of human KDR (790 to end residues) assessed as residual activity at 1 uM using myelin basic protein as substrate after 40 mins by [gamma-33ATP] radiometric assay relative to control.
Chain of Vascular endothelial growth factor receptor 2 (Homo sapiens) (P35968 whole entry): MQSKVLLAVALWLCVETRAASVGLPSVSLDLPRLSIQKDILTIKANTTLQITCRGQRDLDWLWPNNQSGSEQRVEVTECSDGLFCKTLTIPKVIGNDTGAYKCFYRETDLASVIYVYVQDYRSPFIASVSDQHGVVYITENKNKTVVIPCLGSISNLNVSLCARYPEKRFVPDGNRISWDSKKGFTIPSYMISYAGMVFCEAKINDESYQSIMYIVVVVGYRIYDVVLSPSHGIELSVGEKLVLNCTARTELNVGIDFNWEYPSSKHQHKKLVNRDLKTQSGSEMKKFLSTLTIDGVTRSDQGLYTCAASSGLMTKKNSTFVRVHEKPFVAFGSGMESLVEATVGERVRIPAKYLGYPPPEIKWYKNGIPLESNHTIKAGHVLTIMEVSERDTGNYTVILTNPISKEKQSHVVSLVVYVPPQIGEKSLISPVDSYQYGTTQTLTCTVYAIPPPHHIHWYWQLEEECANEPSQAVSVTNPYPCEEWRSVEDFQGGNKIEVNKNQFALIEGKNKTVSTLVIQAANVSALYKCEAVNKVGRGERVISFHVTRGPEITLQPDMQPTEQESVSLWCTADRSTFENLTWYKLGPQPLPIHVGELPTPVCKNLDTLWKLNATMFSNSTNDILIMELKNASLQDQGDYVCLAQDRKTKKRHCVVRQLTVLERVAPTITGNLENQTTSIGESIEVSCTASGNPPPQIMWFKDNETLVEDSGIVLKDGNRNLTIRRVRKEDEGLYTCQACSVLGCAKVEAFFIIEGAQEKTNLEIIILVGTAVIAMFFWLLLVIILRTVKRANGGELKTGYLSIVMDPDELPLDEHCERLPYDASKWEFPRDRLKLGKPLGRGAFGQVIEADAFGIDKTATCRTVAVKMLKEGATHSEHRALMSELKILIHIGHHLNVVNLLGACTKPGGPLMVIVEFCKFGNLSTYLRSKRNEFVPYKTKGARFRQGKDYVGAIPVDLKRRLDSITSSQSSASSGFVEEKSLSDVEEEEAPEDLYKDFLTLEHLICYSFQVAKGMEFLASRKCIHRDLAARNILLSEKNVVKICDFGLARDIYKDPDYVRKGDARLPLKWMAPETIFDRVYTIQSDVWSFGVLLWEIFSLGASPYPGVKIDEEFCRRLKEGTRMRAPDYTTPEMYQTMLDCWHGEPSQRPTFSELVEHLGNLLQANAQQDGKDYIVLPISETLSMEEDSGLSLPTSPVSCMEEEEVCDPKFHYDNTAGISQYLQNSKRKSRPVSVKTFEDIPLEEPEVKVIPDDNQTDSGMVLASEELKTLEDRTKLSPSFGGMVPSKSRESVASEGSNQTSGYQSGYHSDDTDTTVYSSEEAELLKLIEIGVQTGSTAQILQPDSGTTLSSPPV
Experiment [13] addresses Tyrosine-protein kinase Lck (Homo sapiens) (UniProt P06239). The experiment is described as follows: Inhibition of recombinant full length human LCK activated assessed as residual activity at 1 uM using KVEKIGEGTYGVVYK as substrate after 40 mins in presence of [gamma-33ATP] by scintillation counting based radiometry assay relative to control.
Experiment [14] deals with Hepatocyte growth factor receptor (Homo sapiens), P08581 [Y1230C]. The experiment is described as follows: Inhibition of recombinant human MET A1209G/V1290L/Y1248C mutant (974 to end residues) assessed as residual activity at 1 uM using KKKGQEEEYVFIE as substrate incubated for 40 mins in presence of [gamma-33ATP by scintillation counting based radiometry assay relative to control.

Experiment [15] deals with Serine/threonine-protein kinase PAK 5 (Homo sapiens) (UniProt Q9P286). As to the kind of experiment: Inhibition of recombinant human PAK5 (425 to end residues) assessed as residual activity at 1 uM using RRRLSFAEPG as substrate measured after 40 mins in presence of [gamma33P]ATP by scintillation counting method relative to control.
Experiment [16] addresses Serine/threonine-protein kinase 33 (Homo sapiens) (UniProt Q9BYT3). The experiment is described as follows: Inhibition of recombinant full-length human STK33 at 1 uM assessed as residual activity at 1 uM using myelin basic protein as substrate measured after 40 mins in presence of [gamma33P]ATP by scintillation counting method relative to control.
Experiment [17] deals with Angiopoietin-1 receptor (Homo sapiens), Q02763 [Q939H,Q940H,R849W]. The experiment is described as follows: Inhibition of human Tie2 Q939H/Q940H/R849W mutant (771 to end residues) assessed as residual activity at 1 uM using EFPIYDFLPAKKK as substrate measured after 40 mins in presence of [gamma33P]ATP by scintillation counting method relative to control.
Chain of Angiopoietin-1 receptor (Homo sapiens), Q02763 [Q939H,Q940H,R849W] (Q02763 whole entry R849W/Q939H/Q940H): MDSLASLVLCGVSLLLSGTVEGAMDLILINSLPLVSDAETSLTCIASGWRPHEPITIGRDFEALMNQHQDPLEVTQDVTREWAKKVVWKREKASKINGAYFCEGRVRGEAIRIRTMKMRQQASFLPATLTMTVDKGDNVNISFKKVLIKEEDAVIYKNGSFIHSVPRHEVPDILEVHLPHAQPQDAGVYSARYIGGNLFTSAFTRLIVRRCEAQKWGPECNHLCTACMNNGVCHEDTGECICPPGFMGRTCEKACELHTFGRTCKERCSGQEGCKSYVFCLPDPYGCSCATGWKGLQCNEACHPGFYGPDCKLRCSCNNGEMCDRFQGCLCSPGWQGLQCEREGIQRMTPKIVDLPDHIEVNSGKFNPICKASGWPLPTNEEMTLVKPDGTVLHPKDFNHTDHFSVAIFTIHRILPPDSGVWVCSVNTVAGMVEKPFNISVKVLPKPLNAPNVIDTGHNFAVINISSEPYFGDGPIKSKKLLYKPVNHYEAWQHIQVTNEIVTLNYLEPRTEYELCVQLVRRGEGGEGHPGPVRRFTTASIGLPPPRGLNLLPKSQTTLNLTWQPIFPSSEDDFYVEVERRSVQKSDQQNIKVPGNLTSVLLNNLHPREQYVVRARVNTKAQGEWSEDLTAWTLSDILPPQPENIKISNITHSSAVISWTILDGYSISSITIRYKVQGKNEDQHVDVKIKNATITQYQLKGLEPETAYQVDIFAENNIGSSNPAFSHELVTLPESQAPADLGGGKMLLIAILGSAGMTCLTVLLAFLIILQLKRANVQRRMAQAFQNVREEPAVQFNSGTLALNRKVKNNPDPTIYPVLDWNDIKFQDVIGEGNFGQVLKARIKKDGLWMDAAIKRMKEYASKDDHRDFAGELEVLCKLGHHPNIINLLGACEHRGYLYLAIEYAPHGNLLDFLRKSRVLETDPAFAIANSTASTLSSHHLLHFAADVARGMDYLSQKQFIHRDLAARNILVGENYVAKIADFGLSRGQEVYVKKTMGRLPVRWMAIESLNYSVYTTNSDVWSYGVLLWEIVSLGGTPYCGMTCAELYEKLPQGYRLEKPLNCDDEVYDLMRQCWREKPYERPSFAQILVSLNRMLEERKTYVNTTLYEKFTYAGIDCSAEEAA
In experiment [18] the target is High affinity nerve growth factor receptor (Homo sapiens) (UniProt P04629). The experiment is described as follows: Inhibition of human TrkA (440 to end residues) assessed as residual activity at 1 uM using KKKSPGEYVNIEFG as substrate measured after 40 mins in presence of [gamma33P]ATP by scintillation counting method relative to control.
Experiment [19] has as its target DNA-dependent protein kinase catalytic subunit (Homo sapiens) (UniProt P78527). The experiment is described as follows: Inhibition of recombinant full-length human DNA-PK at 1 uM assessed as residual activity at 1 uM using GST-cMyc-p53 as substrate measured after 40 mins by fluorescence assay.
In experiment [20] the test system is PI3-kinase p110-alpha/p85-alpha (Homo sapiens), P27986+P42336 [E542K]. As to the kind of experiment: Inhibition of recombinant full-length human PI3K p110alpha E542K mutant/p85alpha assessed as residual activity at 1 uM assessed as residual activity at 1 uM using phosphatidylinositol-4, 5-bisphosphate as substrate incubated for 40 mins in presence of [gamma33P]ATP by scintillation counting based radiometry assay relative to control. The experiment is classed as protein-complex assay.

Experiment [21] addresses Phosphatidylinositol 4-phosphate 5-kinase type-1 alpha (Homo sapiens) (UniProt Q99755). The experiment is described as follows: Inhibition of recombinant full-length human PIP5K1alpha at 1 uM assessed as residual activity at 1 uM using phosphatidylinositol 4-phosphate as substrate measured after 40 mins by HTRF assay.

Chain of Calcium/calmodulin-dependent protein kinase kinase 2 (Homo sapiens), Q96RR4 [T85S] (Q96RR4 whole entry T85S): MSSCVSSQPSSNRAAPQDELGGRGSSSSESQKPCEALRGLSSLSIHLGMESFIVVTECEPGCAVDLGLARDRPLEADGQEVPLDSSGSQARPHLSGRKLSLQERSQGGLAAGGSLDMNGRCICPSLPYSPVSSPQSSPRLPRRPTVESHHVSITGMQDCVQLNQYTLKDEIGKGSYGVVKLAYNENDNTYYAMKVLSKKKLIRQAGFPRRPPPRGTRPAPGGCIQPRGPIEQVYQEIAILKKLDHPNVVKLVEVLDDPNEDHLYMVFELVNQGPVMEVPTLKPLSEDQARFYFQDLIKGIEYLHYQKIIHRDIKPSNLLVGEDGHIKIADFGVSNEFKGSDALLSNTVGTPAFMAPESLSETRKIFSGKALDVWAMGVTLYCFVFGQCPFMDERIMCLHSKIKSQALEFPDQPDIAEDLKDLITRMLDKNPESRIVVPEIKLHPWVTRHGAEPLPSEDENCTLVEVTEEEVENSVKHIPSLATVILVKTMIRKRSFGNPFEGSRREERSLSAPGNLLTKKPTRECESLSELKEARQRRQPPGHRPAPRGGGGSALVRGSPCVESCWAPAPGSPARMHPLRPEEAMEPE
Chain of Tyrosine-protein kinase Lck (Homo sapiens) (P06239 2-509 limits assumed): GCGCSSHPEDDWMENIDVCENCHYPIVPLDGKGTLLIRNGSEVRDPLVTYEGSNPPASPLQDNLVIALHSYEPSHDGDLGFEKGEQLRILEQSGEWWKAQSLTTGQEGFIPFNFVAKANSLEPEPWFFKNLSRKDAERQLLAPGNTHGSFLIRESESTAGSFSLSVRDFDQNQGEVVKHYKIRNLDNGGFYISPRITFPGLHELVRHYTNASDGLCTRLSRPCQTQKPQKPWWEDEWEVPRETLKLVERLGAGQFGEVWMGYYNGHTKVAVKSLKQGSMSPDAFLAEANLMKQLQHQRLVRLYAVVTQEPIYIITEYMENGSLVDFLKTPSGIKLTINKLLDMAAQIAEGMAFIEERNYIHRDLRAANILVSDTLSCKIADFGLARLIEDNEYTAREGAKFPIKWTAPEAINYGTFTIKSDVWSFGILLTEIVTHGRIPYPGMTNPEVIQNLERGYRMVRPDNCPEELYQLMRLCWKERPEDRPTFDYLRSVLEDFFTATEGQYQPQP
Chain of Tyrosine-protein kinase HCK (Homo sapiens) (P08631 2-526 limits assumed): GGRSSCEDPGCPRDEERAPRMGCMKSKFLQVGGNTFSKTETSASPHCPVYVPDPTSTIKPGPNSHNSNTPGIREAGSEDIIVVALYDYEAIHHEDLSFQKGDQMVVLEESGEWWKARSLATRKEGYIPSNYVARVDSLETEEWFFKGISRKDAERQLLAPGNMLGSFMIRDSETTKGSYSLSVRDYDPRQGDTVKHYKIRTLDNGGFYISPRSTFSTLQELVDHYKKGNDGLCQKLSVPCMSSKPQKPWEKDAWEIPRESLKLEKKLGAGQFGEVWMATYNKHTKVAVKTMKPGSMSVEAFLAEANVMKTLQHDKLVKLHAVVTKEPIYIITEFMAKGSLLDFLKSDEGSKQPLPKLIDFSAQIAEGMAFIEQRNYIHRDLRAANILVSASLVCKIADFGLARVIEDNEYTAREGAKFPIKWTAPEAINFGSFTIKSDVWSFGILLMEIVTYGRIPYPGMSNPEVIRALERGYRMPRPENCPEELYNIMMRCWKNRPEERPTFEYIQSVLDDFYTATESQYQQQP

As to `C=CCOC(=O)c1cc(-c2ccc(/C=C3/NC(=S)NC3=O)o2)ccc1Cl`, the inhibition in experiment [1] came out at 93%. In addition, the Activity stood at 103% in [2]; 78% in experiment [3]; 94% in experiment [4]; 68% in experiment [5]; 67% in experiment [6]; 94% in [7]. For the same compound, the Activity in [8] worked out at 26%; in experiment [9], 91%; in [10], 106%; in experiment [11], 103%; in [12] it was 98%; in experiment [13], 76%. Also, the Activity in experiment [14] was determined as 114%; in experiment [15], 98%; in experiment [16] it was 96%; in experiment [17] it was 105%; in [18] it was 100%; in experiment [19] it was 107%. In addition, the Activity in experiment [20] was found to be 91%; in experiment [21] it was 98%.

With `N=C1NC(=O)/C(=C\c2ccc(-c3cccc([N+](=O)[O-])c3)o2)S1`, the inhibition in experiment [1] turned out to be 96%. Also, the Activity in experiment [2] is 75%; in experiment [3], 100%; in experiment [4] it was 92%; in experiment [5], 74%; in experiment [6], 54%; in experiment [7] it was 98%. Moreover, the Activity in [8] came to 50%; in experiment [9] it was 103%; in experiment [10] it was 104%; in [11], 80%; in experiment [12], 94%; in [13], 93%. Further, the Activity in [14] is 98%; in [15] it was 103%; in experiment [16], 88%; in [17], 91%; in experiment [18], 93%; in experiment [19], 93%. Further, the Activity turned out to be 99% in experiment [20] and 102% in experiment [21].
